# Assay results as given in US20240299353A1, “COMPOSITIONS AND METHODS FOR TREATING […] 5-MEO-DMT” (Alvarius Pharmaceuticals Ltd., priority 2021, published 2024).
# Several values for one entry are separate records, joined by “and”; a condition that tells them apart may be missing. Equal values may be shown once.
# Tested on: hippocampal proteins
# Assay: Hippocampal LC-MS/MS proteomics and PANTHER pathway overrepresentation
# Format: in vivo, Male Wistar rats
# Details: hippocampus
# Protocol: These treatment groups were used for the molecular assessment of addiction-linked markers.
# Due to incompatibilities between components of the lysis buffer in the High-Performance Liquid Chromatography (HPLC) mass spectrometer the samples were first precipitated in 100% (w/v) Trichloroacetic acid (TCA). 1 volume of TCA stock was added to 4 volumes of protein sample. The mixture was incubated for 10 mins at 4° C. before centrifugation at 14,000 RPM for 5 mins. The supernatant was discarded and the pellet was washed in acetone. The acetone was then discarded and the pellet was air-dried before resuspension in 6M urea (Sigma) made in 50 mM ammonium bicarbonate (ABC, Sigma). 100 mM dithiothreitol (DTT) was added to the sample for a final concentration of 5 mM and the sample was incubated while vortexing at 60° C. for 30 mins. Next, 200 mM iodoacetemide (IAA, Sigma) solution was added and the sample was incubated in the dark at room temperature for 30 mins. The sample was then diluted with 50 mM ABC to give a final concentration of ≤2M Urea before the addition of trypsin. 50 μl of reduced, alkylated sample was added to a vial of trypsin singles, proteomic grade (Sigma) and incubated at 37° C. overnight while vortexing. 1% acetic acid (AA) was added to the sample to stop the trypsination the following day. Sample clean-up was performed using Stage Tips for a 10 μl pipette with a 0.6 μl C18 resin (Merck) and clean up was carried out as follows; Tip was equilibrated (10 μl of 50% acetonitrile (ACN) in 0.1% trifluoroacetic acid (TFA) was aspirated into the tip and dispensed to waste x2, 10 μl of 0.1% TFA was aspirated and dispensed to waste x2), peptides were bound to resin and washed (10 μl of sample was aspirated and dispensed x5 cycles, 10 μl of 0.1% TFA was aspirated and dispensed to waste x2) before being eluted into a collecting tube containing 30 μl of 50% ACN in 0.1% TFA (aspirate and dispense the sample through Stage Tip x3). This process was repeated three times for each sample using the same Stage Tip and collection tube. Samples were dried in a vacuum centrifuge for 30 mins at 60° C. and resuspended in 30 μl of Buffer A (97% water, 2.5% ACN and 0.5% AA) and stored at −20° C.
# Digested samples were run on a Thermo Scientific Q Exactive mass spectrometer connected to a Dionex Ultimate 3000 (RSLCnano) chromatography system. Tryptic peptides were resuspended in 0.1% formic acid. Each sample was loaded onto a fused silica emitter (75 μm ID, pulled using a laser puller (Sutter Instruments P2000)), packed with Recrocil Pur C18 (1.9 μm) reverse phase media and was separated by an increasing acetonitrile gradient over 47 mins at a flow rate of 250 nL/min. The mass spectrometer was operated in positive ion mode with a capillary temperature of 320° C., and with a potential of 2300V applied to the frit. All readings were acquired with the mass spectrometer operating in automatic data dependent switching mode. A high resolution (70,000) MS scan was performed using the Q Exactive to select the most intense ions prior to MS/MS analysis using Higher-energy collisional dissociation (HCD). To identify peptides and proteins the MS/MS spectra were searched against the rat UniProt database. The database searches were performed with carbamidomethylation (C) as a fixed modification and acetylation (protein N terminus) and oxidation (M) as variable modifications. Filtering by a false discovery rate (FDR) was applied for peptides and proteins (0.01). For the generation of label-free quantitative (LFQ) ion intensities for protein profiles, signals of corresponding peptides in different LCMS/MS runs were matched by MaxQuant.
# The Perseus statistical software contained in the MaxQuant package was used to analyze ion intensities (LFQ Intensity). Protein identities were filtered to eliminate the identifications from the reverse database, only identified by site and common contaminants.
compound,measurement,setting,value
"COc1ccc2[nH]cc(CCN(C)C)c2c1 [5-MeO-DMT, 5-methoxy-N,N-dimethyltryptamine]","of the 118 5-MeO-DMT differentially expressed proteins, shared with the combination",10 mg/kg 5-MeO-DMT,45 proteins
same,pathways significantly overrepresented (PANTHER),10 mg/kg 5-MeO-DMT,16 pathways
same,top overrepresented pathways,10 mg/kg 5-MeO-DMT,altered protein translation and synthesis
same,"of the 120 5-MeO-DMT differentially expressed proteins, shared with the combination",20 mg/kg 5-MeO-DMT,57 proteins
same,pathways significantly overrepresented (PANTHER),20 mg/kg 5-MeO-DMT,24 pathways
same,top overrepresented pathways,20 mg/kg 5-MeO-DMT,"regulation of synapse organisation, structure and activity as well as modulating chemical transmission"
same,differentially expressed proteins vs saline+vehicle,"24 h, 10 mg/kg 5-MeO-DMT",118 proteins
same,differentially expressed proteins shared between the two concentrations,"24 h, 10 mg/kg and 20 mg/kg 5-MeO-DMT alone",32 proteins
same,differentially expressed proteins vs saline+vehicle,"24 h, 20 mg/kg 5-MeO-DMT",120 proteins
same,differentially expressed proteins vs saline+vehicle,"24 h, cocaine+10 mg/kg 5-MeO-DMT, 10 mg/kg",541 proteins and 544 proteins
same,differentially expressed proteins vs saline+vehicle,"24 h, cocaine+20 mg/kg 5-MeO-DMT",221 proteins
same,"of the 340 cocaine differentially expressed proteins, remaining in the combination",cocaine+10 mg/kg 5-MeO-DMT,245 proteins
same,pathways significantly overrepresented (PANTHER),cocaine+10 mg/kg 5-MeO-DMT,309 pathways
same,top overrepresented pathways,cocaine+10 mg/kg 5-MeO-DMT,"NAD and NADH metabolism, positive regulation of lamellipodium assembly and modulation of synaptic signaling"
same,"of the 340 cocaine differentially expressed proteins, remaining in the combination",cocaine+20 mg/kg 5-MeO-DMT,85 proteins
same,pathways significantly overrepresented (PANTHER),cocaine+20 mg/kg 5-MeO-DMT,67 pathways
same,top overrepresented pathways,cocaine+20 mg/kg 5-MeO-DMT,"positive regulation of telomerase activity, negative regulation of apoptosis and regulation of synapse organization, structure and activity"
same,differentially expressed proteins shared between the combination groups,cocaine+10 and cocaine+20 mg/kg 5-MeO-DMT,153 proteins
"COC(=O)[C@H]1[C@@H](OC(=O)c2ccccc2)C[C@@H]2CC[C@H]1N2C.Cl [cocaine, cocaine hydrochloride, reference compound]",differentially expressed proteins vs saline+vehicle,"24 h, cocaine+vehicle, p<0.05, fold change ≥±20%",340 proteins
same,pathways significantly overrepresented (PANTHER),cocaine group,157 pathways
same,top overrepresented pathways,cocaine-experienced animals,"regulation of metabolic processes, protein translation and synaptic signalling"
